60 compounds from ChEMBL document CHEMBL4651402, “Screening of ~5500 FDA-approved drugs and clinical candidates for anti-SARS-CoV-2 activity” (2021) can be followed below.

SMILES strings stand for the structures. pIC50: −log10 of the molar value. Square brackets hold non-standard residues; d marks the D form. Peptide text beside a SMILES is read from it. Orn = NCCC[C@H](N)C(=O)O

By pIC50 is commonly meant −log10 of the IC50, conventionally taken in molar units. A low value points to a high IC50.

This experiment has as its system SARS-CoV-2. The experiment is described as follows: microbe, parasite or virus in culture. The following applies: Severe acute respiratory syndrome coronavirus 2, Vero C1008, 48 h; for IC50: read-out: pIC50 (converted).

In the case of `CC(C)(C)c1ccc(Oc2ccc(N)cn2)cc1` [LIMANTRAFIN], the pIC50 is below 4.70 and the IC50 was above 20 µM.
On the same counts, the results for `COc1ccccc1Oc1c(NS(=O)(=O)c2ccc(C)cn2)nc(-c2ccncc2)nc1OC` [AVOSENTAN] are below 4.70 and above 20 µM.
On the same counts, the results for `CCc1cc(C(N)=S)ccn1` [ETHIONAMIDE] are below 4.70 and above 20 µM.
On the same counts, the results for `CCN1CCCC1CNC(=O)c1cc(S(N)(=O)=O)ccc1OC` (stereo not given) [SULPIRIDE] are below 4.70 and above 20 µM.
Turning to `CCC(=O)Nc1c(C)cc(C(=O)N2CCC(N(C)CCc3ccccc3)CC2)cc1C`, the pIC50 is below 4.70 and the IC50 is above 20 µM.
Taken in the same sequence, the figures for `CC(C(=O)O)c1ccc(N2Cc3ccccc3C2=O)cc1` (stereo not given) [INDOPROFEN] were below 4.70 and above 20 µM.
On the same counts, the results for `CC(C)(Oc1ccc(CCNC(=O)c2ccc(Cl)cc2)cc1)C(=O)O` [BEZAFIBRATE] are below 4.70 and above 20 µM.
Regarding `Cc1nc(C(=O)N2CCCC[C@H]2CNC(=O)c2cccc3occc23)c(-c2ccc(F)cc2)s1` [SB-649868], the pIC50 was below 4.70 and the IC50 was above 20 µM.
Take `CCCc1c(OCCCCCOc2cc3c(cc2C(C)=O)CCC(C(=O)O)O3)ccc(C(C)=O)c1O` (stereo not given) [ABLUKAST]: the pIC50 is below 4.70 and the IC50 was above 20 µM.
On the same counts, the results for `CCN1CCC[C@H]1CNC(=O)c1c(O)c(Cl)cc(Cl)c1OC` [RACLOPRIDE] are below 4.70 and above 20 µM.
`Cc1cc(O)ccc1Cl` [CHLOROCRESOL]: the pIC50 is below 4.70 and the IC50 is above 20 µM.
Taken in the same sequence, the figures for `CCN(CC)C(C)CN1c2ccccc2Sc2ccccc21` (stereo not given) [ETHOPROPAZINE] were below 4.70 and above 20 µM.
On the same counts, the results for `Nc1ccc(S(=O)(=O)Nc2ncccn2)cc1` [SULFADIAZINE] are below 4.70 and above 20 µM.
Taken in the same sequence, the figures for `Cc1onc(-c2c(F)cccc2Cl)c1C(=O)N[C@@H]1C(=O)N2[C@@H]1SC(C)(C)[C@@H]2C(=O)O` [FLOXACILLIN] were below 4.70 and above 20 µM.
As for `CCN1C[C@]2(COC)CC[C@H](OC)[C@]34[C@@H]5C[C@H]6[C@H](OC)[C@@H]5[C@@]5(C[C@@H]6OC)OCO[C@@]5([C@H]13)[C@@H](O)[C@H]24`, the pIC50 is below 4.70 and the IC50 was above 20 µM.
On the same counts, the results for `COc1cc(C(=O)N2CCOCC2)cc(OC)c1OC` [TRIMETOZINE] are below 4.70 and above 20 µM.
For the compound `CC(O)CC(C)(C)O` (stereo not given) [HEXYLENE GLYCOL], the pIC50 is below 4.70 and the IC50 is above 20 µM.
Taken in the same sequence, the figures for `CCCCN(CCCC)CCCOc1c(C)cc(C(=O)c2cc(=O)c3ccccc3o2)cc1C` [BUCROMARONE] were below 4.70 and above 20 µM.
On the same counts, the results for `CCNC(=O)OC1CCN(c2nncc3cc(OC)c(OC)cc23)CC1` [CARBAZERAN] are below 4.70 and above 20 µM.
Taken in the same sequence, the figures for `CCN1CCCC(OC(=O)C(c2ccccc2)c2ccccc2)C1` (stereo not given) [PIPERIDOLATE] were below 4.70 and above 20 µM.
Take `CC[C@@H](CO)NCCN[C@@H](CC)CO` [ETHAMBUTOL]: the pIC50 was below 4.70 and the IC50 is above 20 µM.
Taken in the same sequence, the figures for `CC(C)NC1CCC(c2ccccc2)(c2ccccc2)CC1` [PRAMIVERINE] were below 4.70 and above 20 µM.
Taken in the same sequence, the figures for `NCCS(=O)(=O)O` [TAURINE] were below 4.70 and above 20 µM.
Consider `CCOC(=O)CN1CCN(C(=O)C=Cc2cc(OC)c(OC)c(OC)c2)CC1`, for which the pIC50 was below 4.70 and the IC50 was above 20 µM.
Taken in the same sequence, the figures for `CC1(C)S[C@@H]2[C@H](NC(=O)Cc3ccccc3)C(=O)N2[C@H]1C(=O)O` [PENICILLIN G] were below 4.70 and above 20 µM.
On the same counts, the results for `O=C1CN(/N=C/c2ncc(-c3ccc(Br)cc3)o2)C(=O)N1` [AZUMOLENE] are below 4.70 and above 20 µM.
Taken in the same sequence, the figures for `CCC1=C(C)CN(C(=O)NCCc2ccc(S(=O)(=O)NC(=O)N[C@H]3CC[C@H](C)CC3)cc2)C1=O` [GLIMEPIRIDE] were below 4.70 and above 20 µM.
Turning to `O=C1C=CC(=O)c2c(O)cccc21` [JUGLONE], the pIC50 is below 4.70 and the IC50 was above 20 µM.
Taken in the same sequence, the figures for `CCCCC(C(=O)O)C(=O)N(Nc1ccccc1)c1ccccc1` (stereo not given) [BUMADIZONE] were below 4.70 and above 20 µM.
Taken in the same sequence, the figures for `CN1[C@@H](CC(=O)c2ccccc2)CCC[C@H]1C[C@H](O)c1ccccc1` [LOBELINE] were below 4.70 and above 20 µM.
Taken in the same sequence, the figures for `COc1ccc2[nH]c([S+]([O-])Cc3ncc(C)c(OC)c3C)nc2c1` (stereo not given) [OMEPRAZOLE] were below 4.70 and above 20 µM.
For the compound `CCN(CC)CCOCCOC(=O)C(CC)(CC)c1ccccc1` [OXELADIN], the pIC50 was below 4.70 and the IC50 is above 20 µM.
On the same counts, the results for `Cc1cn(C2C=CC(CO)O2)c(=O)[nH]c1=O` (stereo not given) are below 4.70 and above 20 µM.
Taken in the same sequence, the figures for `COc1ccc(CCC(=O)c2c(O)cc(O[C@@H]3O[C@H](CO)[C@@H](O)[C@H](O)[C@H]3O[C@@H]3O[C@@H](C)[C@H](O)[C@@H](O)[C@H]3O)cc2O)cc1O` [NEOHESPERIDIN DIHYDROCHALCONE] were below 4.70 and above 20 µM.
For `NCCC(=O)NCCc1c[nH]cn1` [CARCININE], the pIC50 was below 4.70 and the IC50 was above 20 µM.
Taken in the same sequence, the figures for `Clc1cccc(C(c2ccc3[nH]cnc3c2)n2ccnc2)c1` (stereo not given) [LIAROZOLE] were below 4.70 and above 20 µM.
On the same counts, the results for `CN(C)C[C@@H]1CCn2cc(c3ccccc32)C2=C(C(=O)NC2=O)c2cn(c3ccccc23)CCO1` [RUBOXISTAURIN] are below 4.70 and above 20 µM.
On the same counts, the results for `C=C[C@@](C)(O)CC[C@H]1C(=C)CCC2[C@@](C)(CO)CCC[C@@]21C` (stereo not given in full) are below 4.70 and above 20 µM.
Take `CCN(CC)CC(=O)OCC(=O)C1(O)CCC2C3CCC4=CC(=O)CCC4(C)C3C(O)CC21C` (stereo not given): the pIC50 was below 4.70 and the IC50 is above 20 µM.
On the same counts, the results for `O=C(O)c1ccc2[nH]nnc2c1` are below 4.70 and above 20 µM.
On the same counts, the results for `C=CC(=O)N1C[C@H](COc2nc(Nc3cnn(C)c3)nc3[nH]cc(Cl)c23)[C@@H](OC)C1` [PF-06459988] are below 4.70 and above 20 µM.
On the same counts, the results for `CCOC(=O)c1ccc(N)cc1` [BENZOCAINE] are below 4.70 and above 20 µM.
Take `CCOCc1nc2c(N)nc3ccccc3c2n1CC(C)(C)O` [RESIQUIMOD]: the pIC50 is below 4.70 and the IC50 is above 20 µM.
Taken in the same sequence, the figures for `COc1cc(O)c(C(=O)c2ccccc2)cc1S(=O)(=O)O` [SULISOBENZONE] were below 4.70 and above 20 µM.
On to `O=[N+]([O-])c1cnc(-c2ccc(F)cc2)n1CCO` [FLUNIDAZOLE], for which the pIC50 is below 4.70 and the IC50 was above 20 µM.
With `COC(=O)C1=C(C)NC(C)=C(C(=O)OCC(C)C)C1c1ccccc1[N+](=O)[O-]` (stereo not given) [NISOLDIPINE], the pIC50 is below 4.70 and the IC50 was above 20 µM.
On the same counts, the results for `CC(C)C[C@H]1C(=O)N2CCC[C@H]2[C@]2(O)O[C@](NC(=O)[C@@H]3C=C4c5cccc6[nH]cc(c56)C[C@H]4N(C)C3)(C(C)C)C(=O)N12` [ERGOCRYPTINE] are below 4.70 and above 20 µM.
On the same counts, the results for `N[C@H](CO)Cc1ccccc1` [L-PHENYLALANINOL] are below 4.70 and above 20 µM.
Consider `CN1CCN(C2Cc3ccccc3Sc3ccc(Cl)cc32)CC1` (stereo not given) [CLOROTEPINE], for which the pIC50 was below 4.70 and the IC50 is above 20 µM.
On the same counts, the results for `CC(CCC(=O)NCCS(=O)(=O)O)C1CCC2C3C[C@H](O)[C@@H]4C[C@H](O)CC[C@]4(C)C3CC[C@]12C` (stereo not given in full) are below 4.70 and above 20 µM.
Taken in the same sequence, the figures for `CCC(=O)OCC(=O)[C@@]1(OC(=O)CC)[C@H](C)C[C@H]2[C@H]3[C@H]([C@@H](O)C[C@@]21C)[C@@]1(C)C=CC(=O)C=C1C[C@H]3Cl` [ALCLOMETASONE DIPROPIONATE] were below 4.70 and above 20 µM.
Taken in the same sequence, the figures for `OC(c1ccccc1)(c1ccccc1)C1CN2CCC1CC2` (stereo not given) [QUIFENADINE] were below 4.70 and above 20 µM.
On to `CS(=O)(=O)CCCn1c(Cn2c(=O)n(CC(F)(F)F)c3ccncc32)cc2cc(Cl)ccc21` [RILEMATOVIR], for which the pIC50 is below 4.70 and the IC50 was above 20 µM.
Taken in the same sequence, the figures for `CC(C)C[C@@H]1NC(=O)[C@H](CCCN)NC(=O)[C@H](C(C)C)NC(=O)[C@@H]2CCCN2C(=O)[C@@H](Cc2ccccc2)NC(=O)[C@H](CC(C)C)NC(=O)[C@H](CCCN)NC(=O)[C@H](C(C)C)NC(=O)[C@@H]2CCCN2C(=O)[C@@H](Cc2ccccc2)NC1=O` [GRAMICIDIN S] (cyclo(L[dF]PV[Orn]L[dF]PV[Orn])) were below 4.70 and above 20 µM.
Taken in the same sequence, the figures for `CCCN(CCC)CCc1ccc(O)c(O)c1` were below 4.70 and above 20 µM.
On the same counts, the results for `CC#C[C@]1(O)CC[C@H]2[C@@H]3CCC4=CC(=O)CCC4=C3[C@@H](c3ccc(N(C)C)cc3)C[C@@]21C` [MIFEPRISTONE] are below 4.60 and above 25.1 µM.
For `OC[C@H]1O[C@@H](O[C@@H]2[C@@H](CO)O[C@](O)(CO)[C@H]2O)[C@H](O)[C@@H](O)[C@H]1O` [LACTULOSE], the pIC50 was below 4.70 and the IC50 was above 20 µM.
On the same counts, the results for `O=C1CC[C@@](c2ccccc2)(C2CCN(Cc3ccccc3)CC2)C(=O)N1` [DEXETIMIDE] are below 4.70 and above 20 µM.
On the same counts, the results for `N#Cc1c[nH]cc1-c1cccc2c1OC(F)(F)O2` [FLUDIOXONIL] are below 4.70 and above 20 µM.
On the same counts, the results for `Nc1cc(C(F)(F)F)c(-c2cc(N3CCOCC3)nc(N3CCOCC3)n2)cn1` [BUPARLISIB] are below 4.70 and above 20 µM.
